Results reported in US7247309B2, “Coccidiosis vaccines” (Intervet International B.V., priority 1999, dated 2007).

Test system: Eimeria strains according to the invention
Assay: Tolerance/sensitivity of the strains to anticoccidial drugs (infection of chickens with the strains and administration of drug)
Assay type: in vivo
Protocol: all four strains are tolerant to two commonly used anticoccidial ionophores: monensin (110 ppm) and salinomycin (60 ppm). The concentrations tested are commonly used concentrations. Specific tolerance levels were determined by infection of chickens with the strains and administration of ionophores.
These four strains are tolerant for 110 ppm of monensin and for 60 ppm of salinomycin, sensitive for 1 ppm of diclazuril (see FIG. 1) and the proliferative capacity of the four strains is decreased to 76000 (see Table 1b).

## N#CC(c1ccc(Cl)cc1)c1c(Cl)cc(-n2ncc(=O)[nH]c2=O)cc1Cl (stereo not drawn) [diclazuril]
Diclazuril 1 ppm
  sensitivity of the strains to diclazuril: fully sensitive

## CC[C@@]1([C@@H]2O[C@@H]([C@H]3O[C@@](O)(CO)[C@H](C)C[C@@H]3C)C[C@@H]2C)CC[C@H]([C@]2(C)CC[C@]3(C[C@H](O)[C@@H](C)[C@@H]([C@@H](C)[C@@H](OC)[C@H](C)C(=O)O)O3)O2)O1 [monensin]
Monensin 110 ppm, chickens infected with the strains
  tolerance of the strains to monensin: tolerant

## CC[C@@H](C(=O)[C@@H](C)[C@@H](O)[C@H](C)[C@@H]1O[C@@H]([C@@H](CC)C(=O)O)CC[C@@H]1C)[C@H]1O[C@]2(C=C[C@@H](O)[C@]3(CC[C@@](C)([C@H]4CC[C@](O)(CC)[C@H](C)O4)O3)O2)[C@H](C)C[C@@H]1C [salinomycin]
Salinomycin 60 ppm, chickens infected with the strains
  tolerance of the strains to salinomycin: tolerant
